One data set deals with T1, Neutrophil elastase (Homo sapiens, UniProt P08246).
T1 sequence (P08246 whole entry): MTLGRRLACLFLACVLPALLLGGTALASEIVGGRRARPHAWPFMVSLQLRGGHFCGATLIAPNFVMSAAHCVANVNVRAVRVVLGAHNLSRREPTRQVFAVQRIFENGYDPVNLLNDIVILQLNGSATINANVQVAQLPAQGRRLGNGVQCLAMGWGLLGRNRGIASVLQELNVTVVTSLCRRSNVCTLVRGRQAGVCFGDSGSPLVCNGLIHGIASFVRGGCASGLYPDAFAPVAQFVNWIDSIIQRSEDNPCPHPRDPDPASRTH
The data set is described as follows: Inhibition of human neutrophil elastase using MeO-Suc-Ala-Ala-Pro-Val-AMC as substrate incubated for 30 mins prior to substrate addition measured for 30 mins by fluorescence assay.

In data set [1] the target is Urokinase-type plasminogen activator (Homo sapiens, UniProt P00749). As to the kind of experiment: Inhibition of human urokinase using Z-Gly-Gly-Arg-AMC.HCl as substrate measured for 30 mins by spectrophotometry.
A further data set addresses Prothrombin (Homo sapiens, UniProt P00734). The data set is described as follows: Inhibition of human thrombin using Z-Gly-Gly-Arg-AMC.HCl as substrate measured for 30 mins by spectrophotometry.
The target in another data set is Kallikrein-1 (Homo sapiens, UniProt P06870). As to the kind of experiment: Inhibition of human kallikrein using H-Pro-Phe-Arg-AMC acetate salt as substrate measured for 30 mins by spectrophotometry.
For the next data set, the target named is T2, Cathepsin G (Homo sapiens, UniProt P08311).
T2 sequence (P08311 whole entry): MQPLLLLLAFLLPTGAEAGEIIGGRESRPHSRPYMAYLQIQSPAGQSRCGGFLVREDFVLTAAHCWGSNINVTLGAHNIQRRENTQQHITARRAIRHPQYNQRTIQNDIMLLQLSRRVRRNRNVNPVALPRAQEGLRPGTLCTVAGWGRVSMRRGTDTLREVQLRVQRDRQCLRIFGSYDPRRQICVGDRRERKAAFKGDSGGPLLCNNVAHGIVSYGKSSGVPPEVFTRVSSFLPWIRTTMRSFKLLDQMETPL
The data set is described as follows: Inhibition of human cathepsin G using Suc-Ala-Ala-Pro-Phe-p-nitroanilide as substrate incubated for 30 mins prior to substrate addition measured for 30 mins by spectrophotometry.

Data set [2] is described as follows: Stability of the compound in phosphate buffer at pH 7.4 at 100 uM by HPLC analysis. Format: physicochemical. Conditions: pH 7.4, 100 µM.
Another data set concerns HEK-293T. The data set is described as follows: Cytotoxicity against human HEK293T cells after 24 hrs by MTT assay. Format: cell-based. (Formazan colour is commonly taken as a measure of viable cells.)
The next data set has as its target T3, Myeloblastin (Homo sapiens, UniProt P24158).
T3 sequence (P24158 whole entry): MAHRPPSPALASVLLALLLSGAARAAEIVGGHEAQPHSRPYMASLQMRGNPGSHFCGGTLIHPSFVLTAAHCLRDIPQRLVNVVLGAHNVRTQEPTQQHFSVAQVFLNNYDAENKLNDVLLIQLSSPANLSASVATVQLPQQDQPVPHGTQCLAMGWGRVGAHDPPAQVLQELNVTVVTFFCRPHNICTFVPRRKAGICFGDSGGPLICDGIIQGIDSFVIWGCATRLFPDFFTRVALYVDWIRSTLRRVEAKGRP
As to the kind of experiment: Inhibition of human proteinase 3 using N-MeOSuc-Ala-Ala-Pro-Val-p-nitroanilide as substrate measured for 30 mins by spectrophotometry.

In a further data set the target is Trypsin (Homo sapiens, UniProt P07477+P07478+P35030). As to the kind of experiment: Inhibition of human trypsin using Z-Gly-Gly-Arg-AMC.HCl as substrate measured for 30 mins by spectrophotometry. The format is protein assay.
Data set [3] is described as follows: Half life in Sprague-Dawley rat liver microsomes by HPLC analysis. The format is ADME.
A short description of data set [4]: Half life in human plasma by HPLC analysis. Format: ADME, cell-free.
A short description of data set [5]: Inhibition of human chymotrypsin using Suc-Ala-Ala-Pro-Phe-7-amino-4-methylcoumarin as substrate measured for 30 mins by spectrophotometry.
For the next data set, the target named is Pancreatic elastase (Sus scrofa, UniProt P08419+P00772). As to the kind of experiment: Inhibition of pig pancreatic elastase using MeO-Suc-Ala-Ala-Pro-Val-AMC as substrate incubated for 30 mins prior to substrate addition measured for 30 mins by fluorescence assay. Format: protein assay.
Another data set deals with NIH3T3. As to the kind of experiment: cells. Conditions: Mus musculus, NIH3T3, 24 h.
A further data set deals with Plasma. The data set is described as follows: Metabolic stability in human plasma by HPLC analysis. Format: ADME, cell-free.

A word on the IC50: it is the point on the concentration scale where inhibition reaches its midpoint. In general, half-life refers to the time in which the quantity being followed falls by half. A high value points to slow decline.

Kallikrein-1, sequence (P06870 whole entry): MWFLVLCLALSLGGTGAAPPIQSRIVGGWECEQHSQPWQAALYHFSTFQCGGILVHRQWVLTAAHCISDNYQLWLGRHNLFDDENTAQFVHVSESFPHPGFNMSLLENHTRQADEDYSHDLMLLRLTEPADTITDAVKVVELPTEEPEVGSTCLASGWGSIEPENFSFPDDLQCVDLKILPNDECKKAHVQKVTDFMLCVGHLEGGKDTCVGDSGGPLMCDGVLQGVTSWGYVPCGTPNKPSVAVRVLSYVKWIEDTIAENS
Description for NIH3T3: Cytotoxicity against mouse NIH/3T3 cells after 24 hrs by MTT assay

In the case of `CC(C)(C)C(=O)Oc1cn(-c2ccccc2)c(CSc2nc3ccccc3s2)cc1=O`, half-maximal inhibition at Neutrophil elastase (IC50) required 0.96 µM.
With `CC(C)(C)C(=O)Oc1cn(-c2ccccc2)c(CSc2nc3cc(C(=O)O)ccc3o2)cc1=O`, the IC50 is > 50 µM in data set [1], 8.4 µM against Prothrombin, > 50 µM on Kallikrein-1 and 19 µM on Cathepsin G.
In the case of `CC(C)(C)C(=O)Oc1coc(CSc2nc3cc(C(=O)O)ccc3o2)cc1=O`, the half-maximal inhibitory concentration (IC50) in data set [1] is > 50 µM; at Prothrombin, > 50 µM; on Kallikrein-1, > 50 µM; against Cathepsin G, > 100 µM. Also, the Stability entry in [2] is reported as “Stable”.
Turning to `O=C(Oc1coc(CSc2nnc(NC(=O)C3CC3)s2)cc1=O)c1cccc(F)c1`, the Stability result in [2] is listed as “Stable”.
Take `CC(C)(C)C(=O)Oc1coc(CSc2nc3ccccc3s2)cc1=O`: the concentration for half-maximal inhibition (IC50) in the data set on HEK-293T is > 100 µM; against Myeloblastin, 5.9 µM; in data set [1], > 50 µM; at Trypsin, > 50 µM; on Prothrombin it was > 50 µM; in data set [5], > 50 µM. Also, the IC50 at Kallikrein-1 was > 50 µM; at Pancreatic elastase it was > 100 µM; in the data set with NIH3T3, > 100 µM; against Neutrophil elastase, 0.11 µM; on Cathepsin G it was > 100 µM. Moreover, the half-life in data set [3] is < 1 min; in data set [4] it was 10.8 min. Besides, in data set [2], the Stability result is “Stable”.
As to `CC(C)(C)C(=O)Oc1ccc(S(=O)(=O)Nc2ccccc2C(=O)NCC(=O)O)cc1`, the IC50 with HEK-293T was > 100 µM; at Myeloblastin it was > 100 µM; in [1], > 2 µM; on Trypsin, > 2 µM; at Prothrombin, > 2 µM; in [5], > 2 µM. In addition, the IC50 is > 2 µM at Kallikrein-1, > 50 µM at Pancreatic elastase, > 100 µM with NIH3T3 and > 100 µM on Cathepsin G. The same compound gave a half-life in data set [3] of 19.9 min. Further, the Stability result (with Plasma; in [2]) was “Stable” in each case.
`O=C(Oc1cn(-c2ccccc2)c(CSc2nc3ccccc3s2)cc1=O)c1ccccc1` returned a concentration for half-maximal inhibition (IC50) against Neutrophil elastase of 0.28 µM.

The record behind these values is ChEMBL document CHEMBL3091365, “Optimization of O3-acyl kojic acid derivatives as potent and selective human neutrophil elastase inhibitors” (J Med Chem, 2013).
